# Read-outs that look alike come from different tables or passages of the source. Non-standard residues stand in square brackets, D forms with d. Residues, ends and D or L forms follow the SMILES beside them. NMeY = CN[C@@H](Cc1ccc(O)cc1)C(=O)O; Hpla = O=C(O)[C@@H](O)Cc1ccc(O)cc1; Hica(2S) = CC(C)C[C@H](O)C(=O)O
# Columns and labels:
# [1] = in vitro; type: in vitro ADME; settings: PAMPA
# [2] = Caco-2 assay (permeability across cell monolayers); type: in vitro ADME; settings: for Papp: Caco-2, 1 μM compounds in HBSS (pH 7.4) containing 10 mM HEPES and 1% DMSO, 3 h incubation at 37 °C, read-out: Caco-2 permeability Pa; for efflux ratio: read-out: Efflux ratio, Pe (basolateral-to-apical)/Pe (apical-to-basolateral)
# [3] = 1,9-decadiene-water distribution coefficient; type: physicochemical; settings: decadiene and aqueous buffer
# [4] = Mouse serum stability; type: in vitro ADME; settings: mouse serum containing 1% DMSO, 37 °C; for Stability in mouse serum: up to 24 h
# Procedure: Compounds were incubated in mouse serum containing 1% DMSO at 37 °C for 24 h in triplicate. At each time point, 20 μL of the solution was aliquoted and diluted four times using acetonitrile to precipitate serum proteins. After centrifugation, the supernatant was diluted with water and the concentration of the intact peptide was quantified by LC-MS. For other peptides, the amount of residual intact peptides was evaluated after incubation in mouse plasma at 37 °C for 30 min. The amount of intact peptides was determined by taking the ratio of the LC-MS peak area of intact peptides just before and after the incubation.
# [5] = Stability in simulated gastric fluid (SGF); type: in vitro ADME; settings: SGF-containing pepsin, pH 1.2, 37 °C, 1–4 h
# Procedure: The stability assay of peptides in SGF was conducted according to United States Pharmacopeia & National Formulary (USP 25-NF 20)[64] and the previous report[65] with some modifications as follows. SGF used in this study was prepared by dissolving pepsin (3.6 mg/mL) (Sigma, P7012, 3357 Unit/mg) in an aqueous solution of 2 mg/mL sodium chloride (NaCl) at pH 1.2. The solution was vortexed for 1 min, sonicated for 15 min, centrifuged at 20,000 × g for 10 min, and filtered before use. 57 μL of SGF was incubated at 37 °C for 15 min and 3 μL of 1 μM peptide solution in DMSO was added to the warmed […]. After 1, 2, or 4 h, 60 μL of ice-cold ultra-pure water containing 5% trifluoroacetic acid was added and 120 μL of 30% acetonitrile in ultra-pure water was added. The samples were filtered and injected into UPLC.
# [6] = Stability in simulated intestinal fluid (SIF); type: in vitro ADME; settings: SIF-containing pancreatin, pH 6.8, 37 °C, 1–4 h
# Procedure: The stability assay of peptides in SIF was conducted according to United States Pharmacopeia & National Formulary (USP 25-NF 20)[64] and the previous report[65] with some modifications as follows. SIF used in this study was prepared by dissolving pancreatin (1.25 mg/mL) (Sigma, P7545, 8 × USP specifications) in 50 mM phosphate buffer at pH 6.8. The solution was vortexed for 1 min, sonicated for 15 min, centrifuged at 20,000 × g for 10 min, and filtered before use. 57 μL of SIF was incubated at 37 °C for 15 min and 3 μL of 1 μM peptide solution in DMSO was added to the warmed […]. After 1, 2, or 4 h, 60 μL of ice-cold ultra-pure water containing 5% trifluoroacetic acid was added and 120 μL of 30% acetonitrile in ultra-pure water was added. The samples were filtered and injected into UPLC.
# [7] = test system: Caco-2 cells; test: Caco-2 assay (permeability across cell monolayers); type: in vitro ADME; settings: 55 μM
# [8] = Solubility assay; type: physicochemical; settings: phosphate buffer (pH 7.4) containing 1.2% DMSO, 37 °C, read-out: Water solubility
Structure (SMILES),Papp [1] [×10⁻⁶ cm/s],Papp [2] [×10⁻⁶ cm/s],"log Ddec/w (1,9-decadiene–water distribution coefficient) [3]",Stability in mouse serum [4],Degradation in SGF [5],Degradation in SIF [6],Time within which degraded in mouse serum [4] [h],"efflux ratio ([2]; Caco-2, pH 7.4, Inhibitor (+): quinidine, sulfasalazine, benzbromarone, 2 h incubation)","efflux ratio ([2]; Caco-2, pH 7.4, Inhibitor (–), 1 μM, 2 h incubation)","Papp A→B ([2]; Caco-2, pH 7.4, Inhibitor (+): preincubated with 50 µM quinidine, 20 µM sulfasalazine, 30 µM benzbromarone, 2 h incubation, read-out: Pe (apical-to-basolateral)) [×10⁻⁶ cm/s]","Papp B→A ([2]; Caco-2, pH 7.4, Inhibitor (+): preincubated with 50 µM quinidine, 20 µM sulfasalazine, 30 µM benzbromarone, 2 h incubation, read-out: Pe (basolateral-to-apical)) [×10⁻⁶ cm/s]","Papp A→B at 2 h, 1 μM ([2]; human, Caco-2, pH 7.4, Inhibitor (–), 1 μM, 2 h incubation, read-out: Pe (apical-to-basolateral)) [×10⁻⁶ cm/s]","Papp B→A at 2 h, 1 μM ([2]; human, Caco-2, pH 7.4, Inhibitor (–), 1 μM, 2 h incubation, read-out: Pe (basolateral-to-apical)) [×10⁻⁶ cm/s]",solubility kinetic at 4 h [8] [µM],Caco-2 permeability compared with CP1 at higher concentration [7]
CC(C)C[C@@H]1NC(=O)[C@@H](CC(C)C)NC(=O)[C@H](CC(C)C)NC(=O)[C@H](Cc2ccc(O)cc2)N(C)C(=O)[C@H]2CCCN2C(=O)[C@H](CC(C)C)NC1=O [MP1] (cyclo(LL[dP][NMeY]L[dL])),1.7,0.6,0.052,stable,no significant degradation,no significant degradation,,,,,,,,,
CC(C)C[C@H](NC(=O)[C@H](CC(C)C)NC(=O)[C@@H](CC(C)C)NC(=O)[C@H](CC(C)C)NC(=O)[C@H](Cc1ccc(O)cc1)OC(=O)[C@H]1CCCN1)C(N)=O [DP1L-NH2] (H-[dP][Hpla]L[dL]LL-NH2),,,,,,,≤ 2,,,,,,,,

# Second part, led by results:
Papp [1] [×10⁻⁶ cm/s],Papp [2] [×10⁻⁶ cm/s],"log Ddec/w (1,9-decadiene–water distribution coefficient) [3]",Stability in mouse serum [4],Degradation in SGF [5],Degradation in SIF [6],Time within which degraded in mouse serum [4] [h],"efflux ratio ([2]; Caco-2, pH 7.4, Inhibitor (+): quinidine, sulfasalazine, benzbromarone, 2 h incubation)","efflux ratio ([2]; Caco-2, pH 7.4, Inhibitor (–), 1 μM, 2 h incubation)","Papp A→B ([2]; Caco-2, pH 7.4, Inhibitor (+): preincubated with 50 µM quinidine, 20 µM sulfasalazine, 30 µM benzbromarone, 2 h incubation, read-out: Pe (apical-to-basolateral)) [×10⁻⁶ cm/s]","Papp B→A ([2]; Caco-2, pH 7.4, Inhibitor (+): preincubated with 50 µM quinidine, 20 µM sulfasalazine, 30 µM benzbromarone, 2 h incubation, read-out: Pe (basolateral-to-apical)) [×10⁻⁶ cm/s]","Papp A→B at 2 h, 1 μM ([2]; human, Caco-2, pH 7.4, Inhibitor (–), 1 μM, 2 h incubation, read-out: Pe (apical-to-basolateral)) [×10⁻⁶ cm/s]","Papp B→A at 2 h, 1 μM ([2]; human, Caco-2, pH 7.4, Inhibitor (–), 1 μM, 2 h incubation, read-out: Pe (basolateral-to-apical)) [×10⁻⁶ cm/s]",solubility kinetic at 4 h [8] [µM],Structure (SMILES),Caco-2 permeability compared with CP1 at higher concentration [7]
2,0.9,,,,,,1.05,27.2,14.6 ± 3.5,15.3 ± 1.1,1.5 ± 0.4,40.8 ± 11,,CC(C)C[C@@H]1NC(=O)[C@@H](CC(C)C)NC(=O)[C@H](CC(C)C)OC(=O)[C@H](Cc2ccc(O)cc2)NC(=O)[C@H]2CCCN2C(=O)[C@H](CC(C)C)NC1=O [DP2] (cyclo(LL[dP]Y[Hica(2S)][dL])),significantly higher permeability than CP1
2.9,2,1.2,stable,no significant degradation,no significant degradation,,,,,,,,,CC(C)C[C@@H]1NC(=O)[C@H](Cc2ccc(O)cc2)OC(=O)[C@H]2CCCN2C(=O)[C@H](CC(C)C)NC(=O)[C@H](CC(C)C)NC(=O)[C@@H](CC(C)C)NC1=O [DP1] (cyclo(LL[dP][Hpla]L[dL])),
,,−0.74,stable,no significant degradation,no significant degradation,,,,,,,,> 100,CC(C)C[C@@H]1NC(=O)[C@H](Cc2ccc(O)cc2)NC(=O)[C@H]2CCCN2C(=O)[C@H](CC(C)C)NC(=O)[C@H](CC(C)C)NC(=O)[C@@H](CC(C)C)NC1=O [CP1] (cyclo(LL[dP]YL[dL])),

# — publication PMC10023679, “Amide-to-ester substitution as a stable alternative to N-methylation for increasing membrane permeability in cyclic peptides” (Nature Communications, 2023)
